Test results reported in the supplement of paper PMC10307832.

Columns and labels:
Experiment in all cases: relative viability (nuclei count vs DMSO), 5 days (fraction); higher = more cells survive
Silmitasertib = compound: O=C(O)c1ccc2c(c1)nc(Nc1cccc(Cl)c1)c1ccncc12 [Silmitasertib]
In short: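 Viability is treated-well nuclei as a fraction of vehicle-well nuclei, reported as the median across plates. Before counting, lung cancer cell lines were kept overnight at 37 °C in 1536-well plates, pinned with five √10-spaced library-drug doses on vehicle-anchored plates, and left 5 days without medium change, then fixed, permeabilised and Hoechst-stained in one step, imaged at 4× and counted by MetaXpress. A plate passed only if control CV was below 25% and at least one doubling occurred.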

[1] = compound: O=C(O)c1ccc2c(c1)nc(Nc1cccc(Cl)c1)c1ccncc12 [Silmitasertib] + CC1(C)CCC(c2ccc(Cl)cc2)=C(CN2CCN(c3ccc(C(=O)NS(=O)(=O)c4ccc(N[C@H](CCN5CCOCC5)CSc5ccccc5)c(S(=O)(=O)C(F)(F)F)c4)cc3)CC2)C1 [Navitoclax] (partner 0.5 µM)
In short: (§1)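 Relative viability was taken as the ratio of nuclei in treated wells to nuclei in vehicle wells. Lung cancer cell lines in 1536-well plates received compounds by pin tool one day after seeding, either one drug alone or a fixed anchor-drug dose plus five library-drug doses (not always all listed) in √10 steps. Nuclei were counted on 4× images after 5 days of treatment, and values are medians of duplicate plates.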

[2] = compound: O=C(O)c1ccc2c(c1)nc(Nc1cccc(Cl)c1)c1ccncc12 [Silmitasertib] + Cc1nc(Nc2ncc(C(=O)Nc3c(C)cccc3Cl)s2)cc(N2CCN(CCO)CC2)n1 [Dasatinib] (partner 0.075 µM)
In short: as §1

[3] = compound: O=C(O)c1ccc2c(c1)nc(Nc1cccc(Cl)c1)c1ccncc12 [Silmitasertib] + O=C(CCCCCCC(=O)Nc1ccccc1)NO [Vorinostat] (partner 1 µM)
In short: as §1

[4] = compound: O=C(O)c1ccc2c(c1)nc(Nc1cccc(Cl)c1)c1ccncc12 [Silmitasertib] + CS(=O)(=O)CCNCc1ccc(-c2ccc3ncnc(Nc4ccc(OCc5cccc(F)c5)c(Cl)c4)c3c2)o1 [Lapatinib] (partner 2 µM)
In short: as §1

Cell Line	relative viability (Silmitasertib; 0.04 µM)	relative viability (Silmitasertib; 0.4 µM)	relative viability (Silmitasertib; 1.265 µM)	relative viability (Silmitasertib; 4 µM)	relative viability ([1]; first compound 0.04 µM)	relative viability ([1]; first compound 0.4 µM)	relative viability ([1]; first compound 1.265 µM)	relative viability ([1]; first compound 4 µM)	relative viability ([2]; first compound 0.04 µM)	relative viability ([2]; first compound 0.4 µM)	relative viability ([2]; first compound 1.265 µM)	relative viability ([2]; first compound 4 µM)	relative viability ([3]; first compound 0.04 µM)	relative viability ([3]; first compound 0.4 µM)	relative viability ([3]; first compound 1.265 µM)	relative viability ([3]; first compound 4 µM)	relative viability ([4]; first compound 0.04 µM)	relative viability ([4]; first compound 0.4 µM)	relative viability ([4]; first compound 1.265 µM)	relative viability ([4]; first compound 4 µM)
EMC-BAC-2	1.11	0.806	0.605	0.44	1.24	1.03	1.14	1.09	0.34	0.301	0.283	0.287	0.595	0.455	0.287	0.169	0.963	0.884	0.66	0.586
NCI-H661	1.06	0.829	0.946	0.991					1.13	0.723	0.607	0.569	0.812	0.847	0.737	0.631	0.522		0.477	0.661
LU99A	1.03	1.09	0.986	0.752	0.911	0.735	0.622	0.546	0.478	0.46	0.369	0.434	0.519	0.546	0.482	0.374	1.04	1.03	0.613	0.588
LK-2	1.04	0.727	1.03	0.943	0.854	0.696	0.732	0.576	0.328		0.309	0.321	0.296		0.404	0.18	1.12	0.928	0.867	0.718
NCI-H3122	0.995	0.889	1.02	0.983	1.01	0.996	1.01	1.08	0.807	0.706	0.84	0.834	1.04	0.807	0.679	1.19	1.07	0.975	1.07	1.08
NCI-H2347	1.1	0.754	0.98	0.687	0.891	0.692	0.745	0.665	0.581		0.313	0.254	0.565	0.502	0.565	0.479	0.944	0.77	0.759	0.508
NCI-H1563	0.989	1.03	0.887	0.903					0.493	0.486		0.431					1.13	0.925	0.909	0.877
HCC-827	1.09		1.14	0.996	1.11		1.09	1.19	0.342		0.259	0.274	0.861		0.241	0.555	0.197		0.193	0.135
NCI-H1666	1.05	0.834	0.745	0.692	1.02	0.853	0.663	0.492	0.837	0.664	0.623	0.615	1.06	0.845	0.855	0.689	0.734	0.564	0.452	0.319
NCI-H358	1.13	0.757	0.744	0.667					0.176	0.312	0.14	0.155	0.774	0.652	0.677	0.692	0.448	0.57	0.507	0.35
201T	1.08	0.994	1.02	1.06	1.21	1.19	1.26	1.31	0.533	0.593	0.522	0.612	1.09	0.949	1.02	0.837	1.04	1.04	1.06	1.14
PC-3 [JPC-3]	1.04	0.812	1.1	0.953	0.746	0.688	0.773	0.775	1.04	0.628	1.03	0.899	0.815	0.706	0.833	0.436	0.51	0.417	0.458	0.303
NCI-H2405	1.24	0.831	0.883	0.81	1.26	0.68	0.596	0.706	0.221	0.209	0.222	0.236	1.1	0.927	0.839	0.519	1.51	0.903	0.844	0.562
LXF-289	1.05		1.05	1.02	0.917		1.01	1	0.181		0.346	0.363	0.751		0.747	0.862	0.931		0.999	1
EKVX	1.11	0.617	0.864	0.717	0.874	0.648	0.681	0.681	0.6	0.394	0.478	0.373	0.951	0.464	0.541	0.584	0.236	0.192	0.157	0.144
A-427	1.07		1.03	0.396	1.05		0.943	0.566	0.724		0.858	0.335	0.87	0.761	0.954	0.568	1.06		1.24	0.573
IA-LM	1.03	0.749	1.08	0.409	1.08	0.665	0.968	0.623					1.05		1.21	0.538	1.1	0.615	0.967	0.203
ChaGo-K-1	1.07	0.735	0.96	0.885	1.45	0.917	0.84	0.574	0.586	0.464	0.566	0.463	0.786	0.574	0.62	0.539				

Cell Line	relative viability (Silmitasertib; 0.04 µM)	relative viability (Silmitasertib; 0.4 µM)	relative viability (Silmitasertib; 1.265 µM)	relative viability (Silmitasertib; 4 µM)	relative viability ([1]; first compound 0.04 µM)	relative viability ([1]; first compound 0.4 µM)	relative viability ([1]; first compound 1.265 µM)	relative viability ([1]; first compound 4 µM)	relative viability ([2]; first compound 0.04 µM)	relative viability ([2]; first compound 0.4 µM)	relative viability ([2]; first compound 1.265 µM)	relative viability ([2]; first compound 4 µM)	relative viability ([3]; first compound 0.04 µM)	relative viability ([3]; first compound 0.4 µM)	relative viability ([3]; first compound 1.265 µM)	relative viability ([3]; first compound 4 µM)	relative viability ([4]; first compound 0.04 µM)	relative viability ([4]; first compound 0.4 µM)	relative viability ([4]; first compound 1.265 µM)	relative viability ([4]; first compound 4 µM)
NCI-H2342	1.1	0.839	0.998	0.839					0.33	0.295	0.271	0.298	0.782		0.746	0.727				
SK-MES-1	1.04	0.989	0.855	0.491	1.27	1.1	1.15	0.576	0.47	0.283	0.294	0.232	1.21	0.876	0.8	0.297	0.442	0.594	0.536	0.429
LCLC-97TM1	1.1		0.882	0.403	0.504		0.484	0.279	0.976		0.916	0.767	0.605		0.654	0.119	0.999		1.04	0.192
NCI-H2170	1.02	0.712	0.932	0.96	0.614	0.339	0.446	0.433	0.61	0.502	0.676	0.598	0.81	0.503	0.73	0.683	0.292	0.258	0.276	0.274
NCI-H1993	1.08	0.742	0.837	0.622	1.07	0.933	0.631	0.749	0.652	0.502	0.52	0.586	0.911	0.553	0.659	0.514	0.815	0.753	0.887	0.803
NCI-H460	1.03	0.951	0.959	0.799	1.26	1.2	1.3	1.04	0.56	0.445	0.44	0.448	0.722	0.747	0.668	0.842	1.21	0.997	1.02	0.305
NCI-H1975	1.18		0.904	0.917	1.04	0.699	1.06	0.716	0.401		0.324	0.432	0.766		0.687	0.69	0.901	0.731	0.719	0.739
RERF-LC-KJ	1.03	0.848	0.823	0.581	0.863	0.85	0.782	0.436	0.879	0.735	0.393	0.435	0.768	0.517	0.463	0.371	0.859	0.819	0.767	0.516
NCI-H322M	1.08	0.882	0.826	0.486	1.23	0.932	0.799	0.479	0.243	0.294	0.282	0.294	0.994	0.936	0.968	0.653	0.668	0.549	0.42	0.387
NCI-H441	1		0.892	0.757	0.463		0.509	0.385	0.651		0.532	0.333	0.935		0.822	0.843				
ABC-1	1.37	0.773	0.656	0.465					0.632	0.505	0.321	0.391	1.22	0.733	0.642	0.553	1.19	0.848	0.58	0.884
NCI-H1792	0.987	0.788	0.858	0.416	0.651	0.512	0.573	0.414	0.869	0.806	0.824	0.921					0.886	0.711	0.874	0.608
HCC-44	1.03	0.963	1.03	0.544	0.926	0.874	0.892	0.928					1.06	0.903	1.24	1.16	0.968	0.916	1.02	0.699
NCI-H1703	1.13	0.883	1.1	1.11	1.44	1.01	1.15	0.807									1.27	0.868	1.01	0.892
NCI-H522	1.09	0.788	0.82	0.694					0.876	0.785	0.788	0.849	0.99	0.715	0.929	0.863				
SW 900	1.02	0.503	0.651	0.295					0.82	0.316	0.614	0.398	0.585	0.403	0.446	0.172				
NCI-H650	1.17	0.567	0.66	0.379					0.479	0.373	0.375	0.285	0.626	0.281	0.475	0.244	1.13	0.722	0.525	0.272
LCLC-103H	0.986	0.99	0.945	0.628					0.449	0.414	0.419	0.279	0.823	0.693	0.774	0.428				
